# System: 188146-221-R-J1-PDC complex spheroid viability
# Test: Anticancer human tumor 188146-221-R-J1-PDC patient-derived colon adenocarcinoma cell line growth inhibition [POLQ]
# Details: for IC50: curve of first compound; for viability, T/C: stronger effect = lower value
# Procedure: Multicellular complex tumor spheroid response to Polymerase (POL) inhibitors (novobiocin, ART-558, RP6685) in combination with a variety of drugs and investigational agents in selected tumor cell lines
# The POL inhibitors (novobiocin, ART-558, and RP6685) were evaluated both individually and in combination with standard of care and investigational anticancer small molecules within a complex spheroid model of solid tumors. . Complex spheroids include a stromal component modeled by human endothelial cells (HUVEC) and fibroblasts modeled by human mesenchymal stem cells (MSCs). The concentration ranges selected for each drug and investigational agent were based upon clinically achievable concentrations if the clinical Cmax of the agent was known.
# Compounds. The drugs and investigational agents: novobiocin (NSC847541), ART-558 (NSC835418), RP-6685 (NSC848927), peposertib (NSC802822), ceralasertib (NSC780249), elimusertib (NSC800525), camonsertib (NSC841442), AZD-1390 (NSC803789), olaparib (NSC753686), talazoparib (NSC767125), rucaparib (NSC756644), sotorasib (NSC818433), MRTX-1133 (NSC836407), SN-38 (NSC673596), topotecan (NSC609699), epotoside (NSC141540), doxorubicin (NSC123127), gemcitabine (NSC613327), 5-fluorouracil (NSC19893), paclitaxel (NSC125973), vemurafenib (NSC761431), MSA-2 (NSC828583), SN-011 (NSC837082), adavosertib (NSC754352), prexasertib (NSC758257), carboplatin (NSC241240) and oxaliplatin (NSC266046), were obtained from the National Cancer Institute (NCI) Developmental Therapeutics Program Chemical Repository (21). The FDA-approved anticancer drug set is available from the Developmental Therapeutics Program at https://dtp.cancer.gov/organization/dscb/obtaining/. […] The stock solutions were prepared in dimethyl sulfoxide (DMSO, Sigma-Aldrich, St. Louis, MO, cat. D2650), except for the platinum compounds which were prepared in saline (Quality Biological, Gaithersburg, MD, cat. 114-055-101), at 800-fold the tested concentration and stored at -70 degrees C prior to their use. All drugs and investigational agents were tested over a range starting from a high concentration at or near the clinical Cmax and decreasing in half-log increments. If the clinical Cmax for an agent had not been determined, the highest concentration tested was 10 microM, except for SN-38, which was tested at a high concentration of 1 microM.
# Cell Culture. All cells were maintained in an incubator at 37 degrees C and 5% CO2 with 95% humidity. The PDC lines were cultured according to standard operating procedures established by the NCI PDMR (https://pdmr.cancer.gov). Table 3 of the manuscript, lists the cell lines along with the number of the three cell types plated to form the mct-spheroids and media for tumor cell growth. After thawing, all PDC lines, except 997537-175-T-J1-PDC and 415267-285-R-J2-PDC, were cultured in Matrigel-coated flasks prepared with a working solution of 1X Ham's F-12 nutrient mix, without supplementation (Thermo Fisher Scientific, cat. 11765054), 100 U/mL penicillin-streptomycin (Thermo Fisher Scientific, cat. 15140122), and 2.5% Matrigel (Corning Inc., Corning, NY, cat. 354248) for the first three passages. The two PDC lines 997537-175-T-J1-PDC and 415267-285-R-J2-PDC were cultured on uncoated flasks. The 857933-349-R-J2-PDC line was cultured in 6C/Colon 1B media containing advanced DMEM/F-12 (Thermo Fisher Scientific, cat. 12634028), 10 mM HEPES (Thermo Fisher Scientific, cat. 15630080), 1X GlutaMAX supplement (Thermo Fisher Scientific, cat. 35050061), 0.1 mg/mL primocin (InvivoGen, San Diego, CA, cat. ant-pm-2), 10% defined fetal bovine serum, heat inactivated (HyClone Laboratories Inc., Logan, UT, cat. SH30070.03HI), 50% L-WRN conditioned media (ATCC, cat. CRL-3276), 1.25 mM N-Acetyl-L-cysteine (Sigma-Aldrich, cat. A9165), 10 mM nicotinamide (Sigma-Aldrich, cat. N0636), 1X B-27 supplement (Thermo Fisher Scientific, cat. 17504044), 1X N-2 supplement (Thermo Fisher Scientific, cat. […]
# [1] = second compound 0.0316 µM, first compound 0.0316 µM
# [2] = second compound 0.0316 µM, first compound 0.1 µM
# [3] = second compound 0.0316 µM, first compound 0.316 µM
# [4] = second compound 0.0316 µM, first compound 1 µM
# [5] = second compound 0.0316 µM, first compound 3.16 µM
# [6] = second compound 0.0316 µM, first compound 10 µM
# [7] = second compound 0.1 µM, first compound 0.0316 µM
# [8] = second compound 0.1 µM, first compound 0.1 µM
# [9] = second compound 0.1 µM, first compound 0.316 µM
# [10] = second compound 0.1 µM, first compound 1 µM
# [11] = second compound 0.1 µM, first compound 3.16 µM
# [12] = second compound 0.1 µM, first compound 10 µM
# [13] = second compound 0.316 µM, first compound 0.0316 µM
# [14] = second compound 0.316 µM, first compound 0.1 µM
# [15] = second compound 0.316 µM, first compound 0.316 µM
# [16] = second compound 0.316 µM, first compound 1 µM
# [17] = second compound 0.316 µM, first compound 3.16 µM
# [18] = second compound 0.316 µM, first compound 10 µM
# [19] = second compound 1 µM, first compound 0.0316 µM
# [20] = second compound 1 µM, first compound 0.1 µM
# [21] = second compound 1 µM, first compound 0.316 µM
# [22] = second compound 1 µM, first compound 1 µM
# [23] = second compound 1 µM, first compound 3.16 µM
# [24] = second compound 1 µM, first compound 10 µM
# [25] = second compound 3.16 µM, first compound 0.0316 µM
# [26] = second compound 3.16 µM, first compound 0.1 µM
# [27] = second compound 3.16 µM, first compound 0.316 µM
# [28] = second compound 3.16 µM, first compound 1 µM
# [29] = second compound 3.16 µM, first compound 3.16 µM
# [30] = second compound 3.16 µM, first compound 10 µM
# [31] = second compound 10 µM, first compound 0.0316 µM
# [32] = second compound 10 µM, first compound 0.1 µM
# [33] = second compound 10 µM, first compound 0.316 µM
# [34] = second compound 10 µM, first compound 1 µM
# [35] = second compound 10 µM, first compound 3.16 µM
# [36] = second compound 10 µM, first compound 10 µM
# 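Note: spheroids exposed to compounds for seven days.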
# 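Throughout, for viability, T/C: 100% = DMSO vehicle control viability.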
smiles,measurement,setting,value
O=C(Nc1ccc(O)c(NS(=O)(=O)c2ccc(F)cc2)c1)c1ccc(-c2ccccc2)cc1 + Cc1cccc(N(C)C(=O)C2C(O)CCN2c2nc(C)cc(C(F)(F)F)c2C#N)c1,IC50,second compound 0.0316 µM,> 10 µM
same,IC50,second compound 0.1 µM,> 10 µM
same,IC50,second compound 0.316 µM,> 10 µM
same,IC50,second compound 1 µM,> 10 µM
same,IC50,second compound 3.16 µM,> 10 µM
same,IC50,second compound 10 µM,> 10 µM
same,"viability, T/C",[1],100%
same,"viability, T/C",[2],103%
same,"viability, T/C",[3],109%
same,"viability, T/C",[4],107%
same,"viability, T/C",[5],100%
same,"viability, T/C",[6],50.2%
same,"viability, T/C",[7],103%
same,"viability, T/C",[8],92.1%
same,"viability, T/C",[9],93.5%
same,"viability, T/C",[10],87.8%
same,"viability, T/C",[11],106%
same,"viability, T/C",[12],60.6%
same,"viability, T/C",[13],102%
same,"viability, T/C",[14],98.1%
same,"viability, T/C",[15],103%
same,"viability, T/C",[16],80.2%
same,"viability, T/C",[17],83.2%
same,"viability, T/C",[18],75.2%
same,"viability, T/C",[19],98.5%
same,"viability, T/C",[20],90.9%
same,"viability, T/C",[21],92.6%
same,"viability, T/C",[22],86.9%
same,"viability, T/C",[23],84.1%
same,"viability, T/C",[24],65.2%
same,"viability, T/C",[25],96%
same,"viability, T/C",[26],92.3%
same,"viability, T/C",[27],89.5%
same,"viability, T/C",[28],99%
same,"viability, T/C",[29],90.2%
same,"viability, T/C",[30],52.1%
same,"viability, T/C",[31],92.3%
same,"viability, T/C",[32],91.3%
same,"viability, T/C",[33],101%
same,"viability, T/C",[34],87.3%
same,"viability, T/C",[35],79.6%
same,"viability, T/C",[36],51.2%
O=C(c1cc(Cc2n[nH]c(=O)c3ccccc23)ccc1F)N1CCN(C(=O)C2CC2)CC1 + Cc1cccc(N(C)C(=O)C2C(O)CCN2c2nc(C)cc(C(F)(F)F)c2C#N)c1,IC50,second compound 0.0316 µM,> 10 µM
same,IC50,second compound 0.1 µM,> 10 µM
same,IC50,second compound 0.316 µM,> 10 µM
same,IC50,second compound 1 µM,> 10 µM
same,IC50,second compound 3.16 µM,> 10 µM
same,IC50,second compound 10 µM,> 10 µM
same,"viability, T/C",[1],109%
same,"viability, T/C",[2],105%
same,"viability, T/C",[3],108%
same,"viability, T/C",[4],92.8%
same,"viability, T/C",[5],93.9%
same,"viability, T/C",[6],73.9%
same,"viability, T/C",[7],108%
same,"viability, T/C",[8],103%
same,"viability, T/C",[9],101%
same,"viability, T/C",[10],101%
same,"viability, T/C",[11],89.5%
same,"viability, T/C",[12],88.8%
same,"viability, T/C",[13],105%
same,"viability, T/C",[14],102%
same,"viability, T/C",[15],95.6%
same,"viability, T/C",[16],101%
same,"viability, T/C",[17],90.2%
same,"viability, T/C",[18],77.8%
same,"viability, T/C",[19],109%
same,"viability, T/C",[20],106%
same,"viability, T/C",[21],96.7%
same,"viability, T/C",[22],103%
same,"viability, T/C",[23],87.7%
same,"viability, T/C",[24],78.4%
same,"viability, T/C",[25],89.5%
same,"viability, T/C",[26],102%
same,"viability, T/C",[27],106%
same,"viability, T/C",[28],86.7%
same,"viability, T/C",[29],93.1%
same,"viability, T/C",[30],76.9%
same,"viability, T/C",[31],99.8%
same,"viability, T/C",[32],90.1%
same,"viability, T/C",[33],96.3%
same,"viability, T/C",[34],98.2%
same,"viability, T/C",[35],95.6%
same,"viability, T/C",[36],82.1%

# From PubChem BioAssay AID1963851 (Molecular Pharmacology Branch, DTP, NCI, 2024)
